Measurements reported in patent publication US10703757B2, “Compounds and methods for CDK8 modulation and indications therefor” (Plexxikon Inc., priority 2016, dated 2020).

Legend:
[1] = tested on: CDK8 (phosphorylation of STAT1 at serine 727 in A549 cells); test: Cell based Phospho-STAT1 assay (IFNγ-stimulated A549 cells, AlphaLISA); conditions: Homo sapiens, A549, A549 cells, phospho-STAT1 after IFNγ stimulation
How it was run: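 A549 cells given serial compound dilutions for 1 h at 37 °C, then stimulated with IFNγ at 10 ng/mL final for 30 min. Lysate STAT1 Ser727 phosphorylation measured by AlphaLISA; % inhibition vs stimulated/unstimulated DMSO controls, IC50 by nonlinear regression.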

[2] = tested on: CDK8 (TCF/LEF luciferase reporter in HCT116 cells); test: Cell based TCF/LEF reporter assay (HCT116+TCF/LEF luciferase); conditions: Homo sapiens, HCT-116, 24 h
Excerpt: Determine Inhibitor Activity Against CDK8 in Cell Based TCF/LEF Reporter Assay
The colorectal carcinoma cell line HCT116 was stably transduced with lentivirus encoding the TCF/LEF promoter upstream of a luciferase reporter gene (Qiagen) and single cell clones expressing this construct (referred to as HCT116+TCF/LEF) were isolated. HCT116 express endogenous mutant β-catenin^3, resulting in up-regulation of transcription through the TCF/LEF promoter. Expression of the TCF/LEF reporter construct in HCT116 results in constitutive expression of luciferase. Treatment of the cells with inhibitors of components of the β-catenin signaling pathway (such as CDK8) results in decreased expression of luciferase. The assay is performed as follows. The HCT116+TCF/LEF cell line is seeded in a 96 well plate in 50 μL of culture media at 1×10^4 cells/well and incubated at 37° C. overnight. Serial dilutions of compounds (in total volume of 50 μL culture media) are added to the cells and incubated at 37° C. for 24 hours. 4 wells of DMSO treated cells serve as high controls and cells treated with 10 uM of the reference compound CCT251545 (a known CDK8 inhibitor)^4 serve as low controls. The viability of the cells is assayed by the addition of […] reagent (Promega) followed by 30 minute incubation at 37° C. and quantification of the fluorescent signal (Ex400/Em505). The luciferase expression is then assayed by the addition of 25 μL ONE-Glo reagent (Promega) followed by 10 minute incubation at room temperature and quantification of the luminescence signal. The luminescence signal is normalized to the fluorescence signal to correct for any loss in cell viability over the 24 hour compound incubation period. The percentage inhibition at individual concentrations relative to high and low controls is calculated. The data are analyzed by using nonlinear regression to generate IC50 values.

| SMILES | IC50 [1] | IC50 [2] |
| --- | --- | --- |
| N#CC1CCN(c2cccn3ncc(-c4cccc(OCC(F)(F)F)c4)c23)CC1 [Compound P-0251, 1-(3-(3-(2,2,2-trifluoro-ethoxy)phenyl)pyrazolo[1,5-a]pyridin-4-yl)piperidine-4-carbonitrile] | 1000 to 10000 nM | 1000 to 10000 nM |
| CS(=O)(=O)C1CCC(Oc2cccc3ncc(-c4ccc(-c5cnn(C(F)F)c5)cc4)n23)C1 (centres unmarked) [Compound P-0321, 3-(4-(1-(difluoromethyl)-1H-pyrazol-4-yl)phenyl)-5-((3-(methylsulfonyl)cyclopentyl)oxy) imidazo[1,2-a]pyridine] | 1000 to 10000 nM | 1000 to 10000 nM |
| Cc1ccc2cc(-c3cnc4[nH]ccc4c3C3=CCC(C#N)CC3)ccc2n1 (centres unmarked) [Compound P-0202, 4-(5-(2-methylquinolin-6-yl)-1H-pyrrolo[2,3-b]pyridin-4-yl)cyclohex-3-ene-1-carbonitrile] | 0.1 to 100 nM | 0.1 to 100 nM |
| Cn1cc(-c2ccc(-c3cnn4ccnc(C#CC(C)(C)O)c34)cc2)cn1 [Compound P-0274, 2-methyl-4-(3-(4-(1-methyl-1H-pyrazol-4-yl)phenyl)pyrazolo[1,5-a]pyrazin-4-yl)but-3-yn-2-ol] | 0.1 to 100 nM | 0.1 to 100 nM |
| Cn1cc(-c2ccc(-c3cnc4[nH]ccc4c3N3CCC(C#N)CC3)cc2)cn1 [Compound P-0421, 1-(5-(4-(1-methyl-1H-pyrazol-4-yl)phenyl)-1H-pyrrolo[2,3-b]pyridin-4-yl)piperidine-4-carbonitrile] | 0.1 to 100 nM | 0.1 to 100 nM |
| N#CC1CC=C(c2cccn3ncc(-c4ccc(Cl)cc4)c23)CC1 (centres unmarked) [Compound P-0188, 4-(3-(4-chlorophenyl)pyrazolo[1,5-a]pyridin-4-yl)cyclohex-3-ene-1-carbonitrile] | 0.1 to 100 nM | 0.1 to 100 nM |
| Cc1ccc2cc(-c3cnc4[nH]ccc4c3N3CCC(C#N)CC3)ccc2n1 [Compound P-0209, 1-(5-(2-methylquinolin-6-yl)-1H-pyrrolo[2,3-b]pyridin-4-yl)piperidine-4-carbonitrile] | 0.1 to 100 nM | 0.1 to 100 nM |
| COCCn1cc(-c2ccc(-c3cnn4cccc(C#CC(C)(C)C(N)=O)c34)cc2)cn1 [Compound P-0469, 4-(3-(4-(1-(2-methoxyethyl)-1H-pyrazol-4-yl)phenyl)pyrazolo[1,5-a]pyridin-4-yl)-2,2-dimethylbut-3-ynamide] | 0.1 to 100 nM | 0.1 to 100 nM |
| Cc1ccc2cc(-c3cnc4[nH]ccc4c3C#CC(C)(C)C(N)=O)ccc2n1 [Compound P-0131, 2,2-dimethyl-4-(5-(2-methylquinolin-6-yl)-1H-pyrrolo[2,3-b]pyridin-4-yl)but-3-ynamide] | 100 to 1000 nM | 1000 to 10000 nM |
| N#CC1CC=C(c2cccn3ncc(-c4ccc5ncccc5c4)c23)CC1 (centres unmarked) [Compound P-0127, 4-(3-(quinolin-6-yl)pyrazolo[1,5-a]pyridin-4-yl)cyclohex-3-ene-1-carbonitrile] | 0.1 to 100 nM | 0.1 to 100 nM |
| Cn1cc(-c2ccc(-c3cnc4[nH]ccc4c3C#CC(C)(C)O)cc2)cn1 [Compound P-0341, 2-methyl-4-(5-(4-(1-methyl-1H-pyrazol-4-yl)phenyl)-1H-pyrrolo[2,3-b]pyridin-4-yl)but-3-yn-2-ol] | 0.1 to 100 nM | 0.1 to 100 nM |
| N#CC1CCN(c2cccn3ncc(-c4cccc(OCc5ccccc5)c4)c23)CC1 [Compound P-0252, 1-(3-(3-(benzyloxy)phenyl)pyrazolo[1,5-a]pyridin-4-yl)piperidine-4-carbonitrile] | 1000 to 10000 nM | 1000 to 10000 nM |
| Cn1ncc2cc(-c3cnc4[nH]ccc4c3C3=CCC(C#N)CC3)ccc21 (centres unmarked) [Compound P-0358, 4-(5-(1-methyl-1H-indazol-5-yl)-1H-pyrrolo[2,3-b]pyridin-4-yl)cyclohex-3-ene-1-carbonitrile] | 0.1 to 100 nM | 0.1 to 100 nM |
| COc1ccc2cc(-c3cnn4cccc(N5CCC6(CCNC6=O)CC5)c34)ccc2n1 [Compound P-0167, 8-(3-(2-methoxyquinolin-6-yl)pyrazolo[1,5-a]pyridin-4-yl)-2,8-diazaspiro[4.5]decan-1-one] | 0.1 to 100 nM | 0.1 to 100 nM |

Further lines, results first:

| IC50 [1] | IC50 [2] | SMILES |
| --- | --- | --- |
| 0.1 to 100 nM | 0.1 to 100 nM | N#CC1CC=C(c2nccn3ncc(-c4ccc(OCCOC5CCS(=O)(=O)CC5)cc4)c23)CC1 (centres unmarked) [Compound P-0057, 4-(3-(4-(2-((1,1-dioxidotetrahydro-2H-thiopyran-4-yl)oxy)ethoxy)phenyl)pyrazolo[1,5-a]pyrazin-4-yl)cyclohex-3-ene-1-carbonitrile] |
| 0.1 to 100 nM | 0.1 to 100 nM | CS(=O)(=O)Nc1ccc2cc(-c3cnn4cccc(C5=CCC(C#N)CC5)c34)ccc2c1 (centres unmarked) [Compound P-0199, N-(6-(4-(4-cyanocyclohex-1-en-1-yl)pyrazolo[1,5-a]pyridin-3-yl)naphthalen-2-yl)methanesulfonamide] |
| 0.1 to 100 nM | 100 to 1000 nM | CS(=O)(=O)c1ccc(-c2cnn3cccc(C4=CCC(C#N)CC4)c23)cc1F (centres unmarked) [Compound P-0126, 4-(3-(3-fluoro-4-(methyl-sulfonyl)phenyl)pyrazolo[1,5-a]pyridin-4-yl)cyclohex-3-ene-1-carbonitrile] |
| 0.1 to 100 nM | 100 to 1000 nM | N#CC1CC=C(c2nccn3ncc(-c4ccc(C(N)=O)c(F)c4)c23)CC1 (centres unmarked) [Compound P-0105, 4-(4-(4-cyanocyclohex-1-en-1-yl)pyrazolo[1,5-a]pyrazin-3-yl)-2-fluorobenzamide] |
| 0.1 to 100 nM | 0.1 to 100 nM | N#CC1CC=C(c2nccn3ncc(-c4ccc(-c5cnn(CCF)c5)cc4)c23)CC1 (centres unmarked) [Compound P-0036, 4-(3-(4-(1-(2-fluoroethyl)-1H-pyrazol-4-yl)phenyl)pyrazolo[1,5-a]pyrazin-4-yl)cyclohex-3-ene-1-carbonitrile] |
| 0.1 to 100 nM | 0.1 to 100 nM | N#CC1CC=C(c2cccn3ncc(-c4ccc(-n5ccnn5)cc4)c23)CC1 (centres unmarked) [Compound P-0224, 4-(3-(4-(1H-1,2,3-triazol-1-yl)phenyl)pyrazolo[1,5-a]pyridin-4-yl)cyclohex-3-ene-1-carbonitrile] |
| 0.1 to 100 nM | 0.1 to 100 nM | Cc1ccc2cc(-c3cnn4ccnc(C#CC(C)(C)C(N)=O)c34)ccc2n1 [Compound P-0118, 2,2-dimethyl-4-(3-(2-methylquinolin-6-yl)pyrazolo[1,5-a]pyrazin-4-yl)but-3-ynamide] |
| 0.1 to 100 nM | 0.1 to 100 nM | CC(C)(C#Cc1nccn2ncc(-c3ccc4c(cnn4C(F)F)c3)c12)C(N)=O [Compound P-0095, 4-(3-(1-(difluoromethyl)-1H-indazol-5-yl)pyrazolo[1,5-a]pyrazin-4-yl)-2,2-dimethylbut-3-ynamide] |
| 0.1 to 100 nM | 0.1 to 100 nM | CS(=O)(=O)CCn1cc(-c2ccc(-c3cnn4ccnc(C5CCC(C#N)CC5)c34)cc2)cn1 (centres unmarked) [Compound P-0015, (1s,4s)-(3-(4-(1-(2-(methylsulfonyl)ethyl)-1H-pyrazol-4-yl)phenyl)pyrazolo[1,5-a]pyrazin-4-yl)cyclohexane-1-carbonitrile] |
| 0.1 to 100 nM | 0.1 to 100 nM | CCn1cc(-c2ccc(-c3cnn4cccc(C#CC(C)(C)O)c34)cc2)cn1 [Compound P-0232, 4-(3-(4-(1-ethyl-1H-pyrazol-4-yl)phenyl)pyrazolo[1,5-a]pyridin-4-yl)-2-methylbut-3-yn-2-ol] |
| 0.1 to 100 nM | 0.1 to 100 nM | CC(C)(O)Cn1cc(-c2ccc(-c3cnn4ccnc(C5CCC(C#N)CC5)c34)cc2)cn1 (centres unmarked) [Compound P-0064, (1r,4r)-4-(3-(4-(1-(2-hydroxy-2-methylpropyl)-1H-pyrazol-4-yl)phenyl)pyrazolo[1,5-a]pyrazin-4-yl)cyclohexane-1-carbonitrile] |
| 0.1 to 100 nM | 0.1 to 100 nM | N#CC1CCC(c2nccn3ncc(-c4ccc(-c5cnn(CC6(C#N)CC6)c5)c(F)c4)c23)CC1 (centres unmarked) [Compound P-0018, (1s,4s)-4-(3-(4-(1-((1-cyanocyclopropyl)methyl)-1H-pyrazol-4-yl)-3-fluorophenyl)pyrazolo[1,5-a]pyrazin-4-yl)cyclohexane-1-carbonitrile] |
| 0.1 to 100 nM | 0.1 to 100 nM | Cc1cc(-c2cnn3ccnc(C4CCC(C#N)CC4)c23)ccc1-c1cnn(CC(C)(C)O)c1 (centres unmarked) [Compound P-0025, (1s,4s)-4-(3-(4-(1-(2-hydroxy-2-methylpropyl)-1H-pyrazol-4-yl)-3-methylphenyl)pyrazolo[1,5-a]pyrazin-4-yl)cyclohexane-1-carbonitrile] |
| 0.1 to 100 nM | 0.1 to 100 nM | CN(C)CCn1cc(-c2ccc(-c3cnn4ccnc(C5=CCC(C#N)CC5)c34)cc2)cn1 (centres unmarked) [Compound P-0047, 4-[3-[4-[1-(2-dimethylaminoethyl)pyrazol-4-yl]phenyl]pyrazolo[1,5-a]pyrazin-4-yl]cyclohex-3-ene-1-carbonitrile] |
